Paper PMC6502651 (ChemMedChem, 2019)
Where “and” joins values, the source holds several entries; their conditions need not be identical. Equal values may be shown once. Read-outs that look alike come from different tables or passages of the source.

Tests used:
human HDAC1 (hHDAC1) = human HDAC1 (hHDAC1) (Homo sapiens, UniProt Q13547); experiment: In vitro testing on hHDAC1
HepG2 cells = experiment: HepG2 cytotoxicity bioluminescence assay; type: cell-based; settings: Homo sapiens, HepG2, 48 h, read-out: IC50 (HepG2)
[1] = test system: P. berghei exo-erythrocytic forms; experiment: P. berghei-Luc liver stage assay; type: cell-based; settings: for Selectivity index (SI) = (mammalian cell IC50)/(Pb EEF IC50): HepG2 vs Pb EEF; for IC50: Plasmodium berghei, 48 h, read-out: Pb EEF IC50
[2] = test system: 3D7 line of P. falciparum; experiment: P. falciparum asexual intraerythrocytic growth inhibition; type: cell-based; settings: for Selectivity index (SI) = (mammalian cell IC50)/(P. falciparum IC50): HepG2 vs Pf3D7
human HDAC6 (hHDAC6) = molecular target: T1, human HDAC6 (hHDAC6) (Homo sapiens, UniProt Q9UBN7); experiment: In vitro testing on hHDAC6
T1 sequence (Q9UBN7 1-1215): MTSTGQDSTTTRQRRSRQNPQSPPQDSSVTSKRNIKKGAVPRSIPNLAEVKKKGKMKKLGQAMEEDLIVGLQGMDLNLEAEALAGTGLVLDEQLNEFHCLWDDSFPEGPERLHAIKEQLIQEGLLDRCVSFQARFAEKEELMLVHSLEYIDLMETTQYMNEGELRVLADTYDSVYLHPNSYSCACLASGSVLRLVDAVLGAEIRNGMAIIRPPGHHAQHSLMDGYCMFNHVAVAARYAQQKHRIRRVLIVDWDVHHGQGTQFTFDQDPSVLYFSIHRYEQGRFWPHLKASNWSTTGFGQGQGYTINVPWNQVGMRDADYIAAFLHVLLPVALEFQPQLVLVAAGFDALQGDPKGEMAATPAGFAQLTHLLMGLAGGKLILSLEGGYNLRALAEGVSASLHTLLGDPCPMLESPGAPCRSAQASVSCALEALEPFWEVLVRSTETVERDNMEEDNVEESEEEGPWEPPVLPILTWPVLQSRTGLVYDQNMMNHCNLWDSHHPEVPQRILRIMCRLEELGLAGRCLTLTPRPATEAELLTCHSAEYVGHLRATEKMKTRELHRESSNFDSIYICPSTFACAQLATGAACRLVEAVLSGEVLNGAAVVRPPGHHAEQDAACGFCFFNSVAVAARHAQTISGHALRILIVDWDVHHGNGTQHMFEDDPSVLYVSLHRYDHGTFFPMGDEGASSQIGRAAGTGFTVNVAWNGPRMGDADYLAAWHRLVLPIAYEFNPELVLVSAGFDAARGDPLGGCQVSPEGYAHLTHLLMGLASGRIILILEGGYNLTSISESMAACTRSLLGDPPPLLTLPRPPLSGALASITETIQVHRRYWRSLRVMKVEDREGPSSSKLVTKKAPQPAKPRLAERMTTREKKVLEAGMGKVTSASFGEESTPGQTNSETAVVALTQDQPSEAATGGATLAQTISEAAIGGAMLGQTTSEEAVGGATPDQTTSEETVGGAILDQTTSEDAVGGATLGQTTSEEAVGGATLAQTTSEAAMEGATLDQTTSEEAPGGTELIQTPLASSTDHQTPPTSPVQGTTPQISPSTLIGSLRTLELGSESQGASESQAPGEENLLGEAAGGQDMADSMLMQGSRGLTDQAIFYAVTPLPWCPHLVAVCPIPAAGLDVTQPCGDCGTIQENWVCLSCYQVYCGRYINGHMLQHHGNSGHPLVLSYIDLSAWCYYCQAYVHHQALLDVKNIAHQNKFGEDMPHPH

[3] = test system: mature stage V P. falciparum gametocytes; experiment: Gametocytocidal activity; type: cell-based; settings: Plasmodium falciparum, NF54, 48 h, read-out: Pf stage V gametocytes IC50
[4] = Plasmodium falciparum, 3D7, read-out: IC50 (Pf3D7), asexual intraerythrocytic stage P. falciparum 3D7
[5] = Plasmodium falciparum, 3D7, read-out: IC50 (Pf3D7)

Chain of human HDAC1 (hHDAC1) (Q13547 whole entry): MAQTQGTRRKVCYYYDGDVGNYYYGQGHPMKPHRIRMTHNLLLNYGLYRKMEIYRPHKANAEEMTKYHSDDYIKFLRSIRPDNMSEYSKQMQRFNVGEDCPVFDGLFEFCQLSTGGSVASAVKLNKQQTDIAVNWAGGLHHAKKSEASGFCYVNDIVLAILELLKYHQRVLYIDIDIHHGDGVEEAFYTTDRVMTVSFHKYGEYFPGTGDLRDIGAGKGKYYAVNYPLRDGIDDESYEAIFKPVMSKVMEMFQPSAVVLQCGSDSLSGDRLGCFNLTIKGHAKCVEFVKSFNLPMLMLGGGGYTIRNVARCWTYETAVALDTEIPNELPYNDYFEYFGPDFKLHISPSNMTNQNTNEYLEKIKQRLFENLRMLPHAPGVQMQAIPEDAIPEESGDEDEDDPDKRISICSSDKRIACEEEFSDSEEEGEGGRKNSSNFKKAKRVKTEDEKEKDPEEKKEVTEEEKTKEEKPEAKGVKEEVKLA

SMILES	IC50 (human HDAC1 (hHDAC1)) [nM]	IC50 (HepG2 cells) [µM]	Selectivity index (SI) = (mammalian cell IC50)/(Pb EEF IC50) [1]	IC50 [1] [nM]	Selectivity index (SI) = (mammalian cell IC50)/(P. falciparum IC50) [2]	IC50 [2, 4] [nM]	IC50 (human HDAC6 (hHDAC6)) [nM]	Selectivity index (SI) = hHDAC1/hHDAC6 (human HDAC6 (hHDAC6))	IC50 [2, 5] [nM]	IC50 [3] [µM]	IC50 ([2]; read-out: IC50 (Pf3D7), asexual intraerythrocytic stage P. falciparum 3D7) [nM]
CNC(=O)CN(Cc1ccc(C(=O)NO)cc1)C(=O)c1ccccc1C [Compound 2t, N-(4-(Hydroxycarbamoyl)benzyl)-2-methyl-N-(2-(methylamino)-2-oxoethyl)benzamide]	2010	> 50	>2	28000	> 704	54 to 120	32	63			
COc1ccccc1C(=O)N(CC(=O)NC(C)(C)C)Cc1ccc(C(=O)NO)cc1 [Compound 2f, N-(2-(tert-Butylamino)-2-oxoethyl)-N-(4-(hydroxycarbamoyl)benzyl)-2-methoxybenzamide]		> 50	>2	26700		110 to 250		82			
Cc1cc(C)cc(C(=O)N(CC(=O)NCc2cccnc2)Cc2ccc(C(=O)NO)cc2)c1 [Compound 2r, N-(4-(Hydroxycarbamoyl)benzyl)-3,5-dimethyl-N-(2-oxo-2-((pyridin-3-ylmethyl)amino)ethyl)benzamide]		41.9	3	16700	530				79		
CN(C)c1ccc(C(=O)N(Cc2ccc(C(=O)NO)cc2)C(C(=O)NC2CCCCC2)c2ccccc2)cc1 (racemic) [Compound 2d, rac-N-(2-(Cyclohexylamino)-2-oxo-1-phenylethyl)-4-(dimethylamino)-N-(4-(hydroxycarbamoyl)benzyl)benzamide]	840	> 50	>3	19300		390	64	13		14.8	
Cc1ccc(CNC(=O)CN(Cc2ccc(C(=O)NO)cc2)C(=O)c2cc(C)cc(C)c2)cc1 [Compound 2k, N-(4-(Hydroxycarbamoyl)benzyl)-3,5-dimethyl-N-(2-((4-methylbenzyl)amino)-2-oxoethyl)benzamide]			70	210							
CN(C)c1ccc(C(=O)N(CC(=O)NCc2ccccc2)Cc2ccc(C(=O)NO)cc2)cc1 [Compound 2i, N-(2-(Benzylamino)-2-oxoethyl)-4-(dimethylamino)-N-(4-(hydroxycarbamoyl)benzyl)benzamide]	7.7	0.62	28	22	64			<1			
Cc1cccc(CNC(=O)CN(Cc2ccc(C(=O)NO)cc2)C(=O)c2cc(C)cc(C)c2)c1 [Compound 2q, N-(4-(Hydroxycarbamoyl)benzyl)-3,5-dimethyl-N-(2-((3-methylbenzyl)amino)-2-oxoethyl)benzamide]			157	130							
Cc1cc(C)cc(C(=O)N(CC(=O)NCc2ccccc2)Cc2ccc(C(=O)NO)cc2)c1 [Compound 2j, N-(2-(Benzylamino)-2-oxoethyl)-N-(4-(hydroxycarbamoyl)benzyl)-3,5-dimethylbenzamide]		9.57	131	73	259				37		
Cc1cc(C)cc(C(=O)N(CC(=O)NCc2ccc(F)cc2)Cc2ccc(C(=O)NO)cc2)c1 [Compound 2m, N-(2-((4-Fluorobenzyl)amino)-2-oxoethyl)-N-(4-(hydroxycarbamoyl)benzyl)-3,5-dimethylbenzamide]			185	110							
Cc1cc(C)cc(C(=O)N(CC(=O)NCc2ccc(Cl)cc2)Cc2ccc(C(=O)NO)cc2)c1 [Compound 2n, N-(2-((4-Chlorobenzyl)amino)-2-oxoethyl)-N-(4-(hydroxycarbamoyl)benzyl)-3,5-dimethylbenzamide]			21	1000							
CC(C)c1ccc(C(=O)N(CC(=O)NC2CCCCC2)c2ccc(C(=O)NO)cc2)cc1 [Compound 2a, N-(2-(cyclohexylamino)-2-oxoethyl)-N-(4-(hydroxycarbamoyl)phenyl)-4-isopropylbenzamid]			4	9700					570 to 77700		
Cc1ccccc1C(=O)N(CC(=O)NC(C)(C)C)Cc1ccc(C(=O)NO)cc1 [Compound 2e, N-(2-(tert-Butylamino)-2-oxoethyl)-N-(4-(hydroxycarbamoyl)benzyl)-2-methylbenzamide]		> 50	>5	9700				47			
CCN(CC)CCCC(C)Nc1ccnc2cc(Cl)ccc12 (stereo not drawn) [chloroquine, reference compound]									6.8		
Cc1cc(C)cc(C(=O)N(CC(=O)NCc2ccc(C(C)(C)C)cc2)Cc2ccc(C(=O)NO)cc2)c1 [Compound 2o, N-(2-((4-(tert-Butyl)benzyl)amino)-2-oxoethyl)-N-(4-(hydroxycarbamoyl)benzyl)-3,5-dimethylbenzamide]			2	16600							
Cc1cc(C)cc(C(=O)N(CC(=O)NC2CCCCC2)c2ccc(C(=O)NO)cc2)c1 [Compound 2b, N-(2-(cyclohexylamino)-2-oxoethyl)-N-(4-(hydroxycarbamoyl)phenyl)-3,5-dimethylbenzamide]			2	20200					570 to 77700		
COc1ccc(CNC(=O)CN(Cc2ccc(C(=O)NO)cc2)C(=O)c2cc(C)cc(C)c2)cc1 [Compound 2l, N-(4-(Hydroxycarbamoyl)benzyl)-N-(2-((4-methoxybenzyl)amino)-2-oxoethyl)-3,5-dimethylbenzamide]			34	570						10.2	
CC(C)c1ccc(C(=O)N(CC(=O)NCc2ccccc2)Cc2ccc(C(=O)NO)cc2)cc1 [Compound 2h, N-(2-(Benzylamino)-2-oxoethyl)-N-(4-(hydroxycarbamoyl)benzyl)-4-isopropylbenzamide]	19	5 to 13	289	16	889–1483 and 889	5.2 to 8.8	51	<1			5.2
Cc1cc(C)cc(CNC(=O)CN(Cc2ccc(C(=O)NO)cc2)C(=O)c2cc(C)cc(C)c2)c1 [Compound 2p, N-(2-((3,5-Dimethylbenzyl)amino)-2-oxoethyl)-N-(4-(hydroxycarbamoyl)benzyl)-3,5-dimethylbenzamide]			35	580						5.27	
CC(C)(C)c1ccc(C(=O)N(CC(=O)NCc2ccccc2)Cc2ccc(C(=O)NO)cc2)cc1 [Compound 2g, N-(2-(Benzylamino)-2-oxoethyl)-4-(tert-butyl)-N-(4-(hydroxycarbamoyl)benzyl)benzamide]	34	5 to 13	23	580	889–1483		71	<1	5.2 to 8.8		
